What all share (experiment): growth of human tumour cells (NCI), 48 h
Assay [1] concerns SK-MEL-2 melanoma.
Assay [2] relates to K-562 leukemia.
Assay [3] deals with SW-620 colon.
Assay [4] has as its system MDA-MB-231 breast.
The subject of assay [5] is SR leukemia.
For assay [6], the system named is OVCAR-3 ovarian.
In assay [7] the test system is SK-MEL-28 melanoma.
Assay [8] concerns HOP-62 NSCLC.
Assay [9] concerns EKVX NSCLC.
Assay [10] concerns UO-31 renal.

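The compound was tested at five concentrations on cells cultured in 96-well plates, with a 48-hour exposure period. Here, GI50 denotes the concentration required for 50% inhibition of growth. The concentration for full growth arrest is given as TGI.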

For 18 compounds, TGI and GI50 results are on record in PubChem BioAssay (NCI).

For the compound `CCn1c2c(c3c(C(=O)OC)c(O)ccc31)C(=O)c1ccccc1C2=O`, the TGI in assay [1] was 30.5 µM; in [2], above 100 µM; in assay [3], 33.8 µM; in assay [4] it was 51.5 µM; in assay [5], 46.6 µM; in [6], 63.1 µM. The TGI came out at 42.6 µM in assay [7], 30.1 µM in assay [8], 59.7 µM in assay [9] and 27.3 µM in [10].
Regarding `COc1ccc(N=C/C=C/Nc2ccc(OC)cc2)cc1`, the TGI in assay [1] was 31 µM; in [2] it was 31 µM; in assay [3] it was 5.48 µM; in assay [4], 6.02 µM; in assay [5], 11.2 µM; in assay [6], 3.45 µM. Also, the TGI in [7] came out at 29.1 µM; in [8], 12.1 µM; in assay [9] it was 30.6 µM; in assay [10], 10.8 µM.
As to `O=C1/C(=C/c2cccs2)N=C(c2ccccc2)N1C1Nc2cc3c(cc2S1)NC(N1C(=O)/C(=C/c2cccs2)N=C1c1ccccc1)S3` (configuration not stated), the TGI is 36.9 µM in assay [1]; above 100 µM in assay [2]; above 100 µM in [3]; above 100 µM in [4]; 31 µM in assay [5]; above 100 µM in assay [6]. For the same compound, the TGI is above 100 µM in assay [7], above 100 µM in [8], 43.6 µM in assay [9] and above 100 µM in [10].
As to `CC(=O)O[C@H]1/C(=C/c2ccc(N(C)C)cc2)C[C@H]2[C@@H]3CC=C4C[C@@H](N5CCCC5)CC[C@]4(C)[C@H]3CC[C@]12C`, the TGI in assay [1], in [2], in assay [3], in [4], in [5] and in assay [6] was above 100 µM each time. The TGI in [7], in assay [8], in assay [9] and in [10] was above 100 µM in each case.
As for `C/C(=N/O)c1cccc(Nc2nc3ccccc3c3[nH]c4ccccc4c23)c1`, the TGI in assay [1] came out at 5.8 µM; in assay [2], 10.6 µM; in assay [3], 19.4 µM; in assay [4], 11.5 µM; in [5], 3.85 µM; in assay [6] it was 5.1 µM. In addition, the TGI was 12.4 µM in assay [7], 8.83 µM in assay [8], 7.38 µM in assay [9] and 12 µM in [10].
For the compound `c1ccc(N=NNNc2ccc(-c3nc4ccccc4[nH]3)cc2)cc1`, the TGI is 88.7 µM in assay [1]; 94.6 µM in [2]; above 100 µM in [3]; above 100 µM in [4]; above 100 µM in assay [5]; 38.1 µM in assay [6]. The TGI in [7], in [8], in assay [9] and in assay [10] was above 100 µM throughout.
Regarding `CC(=O)C(=C(I)I)c1ccccc1`, the TGI turned out to be 53.6 µM in assay [1]; 53.5 µM in [2]; 38.7 µM in assay [3]; 51.4 µM in [4]; 35.5 µM in assay [5]; 30.3 µM in assay [6]. Besides, the TGI was 38.7 µM in [7], 38.7 µM in assay [8], 49.3 µM in assay [9] and 33.8 µM in assay [10].
As for `CCN(CC)CCNc1ccc(N=Nc2ccc(S(N)(=O)=O)cc2)c2ccccc12`, the TGI in assay [1] is 28.2 µM; in assay [2], above 100 µM; in assay [3], 14.6 µM; in assay [4] it was 27.8 µM; in [5] it was 4.94 µM; in assay [6] it was 5.55 µM. Besides, the TGI in assay [7] is 28.1 µM; in assay [8], above 100 µM; in [9], 41.2 µM; in assay [10], 20.8 µM.
For the compound `COc1ccc(CN=CN/C(C#N)=C(\N)C#N)cc1OC`, the TGI in assay [1], in assay [2], in assay [3], in assay [4], in [5] and in assay [6] was above 100 µM throughout. Further, the TGI in [7], in assay [8], in assay [9] and in [10] was above 100 µM each time.
Consider `COc1cccc(C2c3cc4c(cc3OC(N3CCOCC3)C2C)OCO4)c1O` (configuration not stated), for which the TGI in assay [1] was 40.7 µM; in assay [2], 38.1 µM; in [3], above 75.2 µM; in assay [4], 47.5 µM; in [5], 30.2 µM; in assay [6], 30.8 µM. Also, the TGI in assay [7] is above 61.8 µM; in assay [8], 26 µM; in assay [9], 98.9 µM; in [10] it was 54.3 µM.
For the compound `Fc1cccc2nc(-c3ccccc3)cc(OCc3ccccc3)c12`, the TGI in assay [1], in assay [2], in [3], in [4], in assay [5] and in [6] was above 100 µM each time. Moreover, the TGI in assay [7], in assay [8], in assay [9] and in assay [10] was above 100 µM each time.
`Cc1ccc2[nH]c(=O)c(-c3cnc(=O)[nH]n3)c(O)c2c1`: the TGI in [1], in assay [2], in assay [3], in assay [4], in [5] and in [6] was above 100 µM in each case. Also, the TGI in assay [7], in [8], in assay [9] and in assay [10] was above 100 µM in each case.
Consider `CN(C)Cc1cc(C(=O)O)cc(CN(C)C)c1O`, for which the TGI in assay [1], in assay [2], in assay [3], in assay [4], in assay [5] and in assay [6] was above 100 µM throughout. The TGI in assay [7], in [8], in assay [9] and in assay [10] was above 100 µM in each case.
For `OC1CN=C2c3ccccc3C(O)(c3ccc(Cl)cc3)N2C1` (configuration not stated), the TGI in [1], in assay [2], in assay [3], in assay [4], in assay [5] and in [6] was above 100 µM throughout. Moreover, the TGI in assay [7], in [8], in assay [9] and in assay [10] was above 100 µM throughout.
On to `COc1cc2c(cc1OCCCC(=O)Nc1cc(C(=O)Nc3cc(C(=O)NCCCN(C)C)n(C)n3)n(C)n1)N=CC1CCCN1C2=O` (configuration not stated), for which the TGI in assay [1] worked out at 31.2 µM; in [2], 27.7 µM; in assay [3], 29.2 µM; in assay [4], 39.5 µM; in [5], 26.7 µM; in assay [6], 33 µM. Further, the TGI was 30.4 µM in assay [7], 68.7 µM in assay [8], above 100 µM in [9] and 30.4 µM in [10].
`NS(=O)(=O)c1ccc(/C=C/c2cccc(O)c2)cc1`: the TGI in [1] was 78.2 µM; in assay [2], above 100 µM; in assay [3], above 100 µM; in [4], above 100 µM; in assay [5], above 100 µM; in [6], 80.4 µM. Further, the TGI in assay [7] is above 100 µM; in [8] it was above 100 µM; in assay [9], above 100 µM; in [10], 64.2 µM. The results for the GI50 in assay [2] and in [5] were 43.4 µM and 17.8 µM, respectively.
In the case of `COc1cc2[nH]c(-c3ccccc3)cc(=O)c2cc1OC`, the TGI was above 100 µM in [1]; above 100 µM in [2]; above 100 µM in assay [3]; above 87.3 µM in assay [4]; above 48.3 µM in assay [5]; above 100 µM in [6]. Also, the TGI in [7], in assay [8], in assay [9] and in assay [10] was above 100 µM in each case.
Turning to `COC(=O)/C=C1/OC(c2ccccc2)=C(Cl)C1=O`, the TGI in assay [1] came to 45.8 µM; in assay [2], 25.9 µM; in [3], 41.6 µM; in assay [4], 36 µM; in [5] it was 17.9 µM; in assay [6] it was 33.8 µM. The TGI in assay [7] was 42.5 µM; in [8], above 58 µM; in [9] it was 44.5 µM; in assay [10], 49.2 µM.
